According to patent US20230279146A1, “VISCOSITY REDUCING EXCIPIENTS AND COMBINATIONS THEREOF FOR HIGHLY CONCENTRATED PROTEIN FORMULATIONS” (Merck Patent GmbH, priority 2020, published 2023):
“Also recorded” adds a separate entry of the source. Structures can show the parent of a compound that is named as a salt.

Legend:
Type in all cases: physicochemical
Evolocumab = test: Viscosity of Evolocumab formulated in acetate buffer pH 5.0 with single excipients (mVROC microfluidic viscometer, 20° C.); details: for viscosity of the formulation: Evolocumab 196 mg/ml, 150 mM pyridoxine, thiamine hydrochloride or ascorbic acid, 75 mM Paracetamol; for viscosity of the formulation / viscosity of a Evolocumab formulation: pH 5.0; for viscosity reducing effect compared among the excipients: Evolocumab pH 5.0, 150 mM excipient, data set with concentration by absorption spectroscopy; for viscosity for Evolocumab formulations: pH 5.0, 150 mM excipient
Method: 20 mM Acetate buffer was prepared by mixing 1.2 mg/ml glacial acetic acid with ultrapure water. pH was adjusted to 5.0 using HCl and NaOH if necessary. 0.1 mg/ml Polysorbate 80 was added as stabilizer
Excipient solutions of 150 mM leucine, isoleucine, phenylalanine, ascorbic acid, pyridoxine, proline, lysine, guanidine hydrochloride, thiamine hydrochloride, thiamine monophosphate were prepared in acetate buffer pH 5.0, respectively. Similarly, 25 mM quinine hydrochloride and 5 mM cyanocobalamin were prepared, respectively. Paracetamol and thiamine pyrophosphate were prepared with a concentration of 75 mM. The pH was adjusted using HCl or NaOH, if necessary.
When excipients themselves have a strong absorbance at 280 nm a Bradford-Assay was used.
The mVROC™ Technology (Rheo Sense, San Ramon, Calif. USA) was used for viscosity measurements.
A volume of 200 μl was used. All samples were measured as triplicates.

Infliximab [1] = test: Thermal stability (Tm, Tagg) of Infliximab in phosphate buffer pH 7.2 by nano-DSF; details: Infliximab pH 7.2, change versus control; for aggregation onset temperature Tagg: 150 mM excipient; for thermodynamic transition temperature characterizing heat induced protein unfolding (Tm): 150 mM valine, leucine, ascorbic acid or proline, 5 mM cyanocobalamin
Method: 2.1 Thermal Stability of Infliximab Formulated in Phosphate Buffer pH 7.2 Containing Valine, Leucine, Ascorbic Acid, Cyanocobalamin and Proline as Single Excipients
Buffers and samples were prepared as described under 1.1.
The nano-DSF Technology of a Prometheus system (NanoTemper Technologies GmbH, Munich, Germany) was used to determine melting points and aggregation points.
Fluorescence was measured at 330 and 350 nm as well as the backscattering intensity over a temperature range from 20 to 95° C. with an incline of 1° C./min.
Buffers and samples were prepared as described under 1.4 and 1.5.
Thermal stability measurements were performed as described under 2.1.

Infliximab [2] = test: Viscosity of Infliximab formulated in phosphate buffer pH 7.2 with single excipients (mVROC microfluidic viscometer, 20° C.); details: for viscosity reducing effect on the Infliximab solution: protein concentrations 152 mg/ml and 185 mg/ml, 150 thiamine hydrochloride, thiamine monophosphate
Method: Individual excipient solutions of 150 mM valine, leucine, phenylalanine, ascorbic acid, pyridoxine, proline and thiamine monophosphate were prepared in phosphate buffer pH 7.2. In the same buffer, a 5 mM solution of cyanocobalamin was prepared. Folic acid was prepared in a 13 mM concentration in phosphate puffer pH 7.2. Thiamine pyrophosphate was prepared in a 75 mM concentration in phosphate puffer pH 7.2. The pH was adjusted using HCl or NaOH where necessary.
For absorption spectroscopy, the absorbance at 280 nm was measured using a BioSpectrometer® kinetic (Eppendorf, Hamburg, Germany) with a protein extinction coefficient of A0.1%, 280 nm=1.428.
The mVROC™ Technology (Rheo Sense, San Ramon, Calif., USA) was used for viscosity measurements.
Measurements were performed at 20° C. using a 500 μl syringe and a shear rate of 3000 s-1. A volume of 200 μl was used. All samples were measured as triplicates.
Results of viscosity measurements regarding these experiments can be seen in FIG. 1, FIG. 2 and FIG. 3.

[3] = 5 mM cyanocobalamin, 25 mM quinine hydrochloride
[4] = protein concentration 174 mg/ml, 150 mM pyridoxine, ascorbic acid, thiamine hydrochloride or thiamine phosphate, 5 mM cyanocobalamin, 13 mM folic acid, 75 mM thiamine pyrophosphate, versus formulation without excipients
[5] = protein concentration 149 mg/ml, 150 mM pyridoxine, thiamine hydrochloride or thiamine monophosphate, 5 mM cyanocobalamin, 13 mM folic acid, 75 mM thiamine pyrophosphate
[6] = higher protein concentration of 192 mg/ml
[7] = protein concentration 192 mg/ml (first mention, absorption spectroscopy)
[8] = protein concentration 122 mg/ml (absorption spectroscopy), pH 7.2, 150 mM excipient, versus no excipient
[9] = protein concentration 143 mg/ml, pH 7.2, 150 mM excipient, versus no excipient
[10] = protein concentration 180 mg/ml (Bradford assay), 150 mM pyridoxine or thiamine hydrochloride, 5 mM cyanocobalamin, 25 mM quinine hydrochloride, 75 mM paracetamol
[11] = third data set, 75 mM thiamine pyrophosphate, 150 mM thiamine hydrochloride, thiamine monophosphate (thiamine monophosphate only at 180 mg/ml)

Compound	viscosity of the formulation (Evolocumab; [3])	thermodynamic transition temperature characterizing heat induced protein unfolding (Tm) (Infliximab [1])	viscosity of the formulation (Infliximab [2]; [4])	viscosity of the formulation (Infliximab [2]; [5])	viscosity for Evolocumab formulations (Evolocumab; [6])	viscosity for Evolocumab formulations (Evolocumab; [7])	viscosity of a Evolocumab formulation (Evolocumab; [10])	further results
O=C1O[C@H]([C@@H](O)CO)C(O)=C1O [ascorbic acid]	reduced viscosity of the formulation	increase	viscosity reducing effect	–	–	–	–	aggregation onset temperature Tagg (Infliximab [1]): increase
Nc1nc2ncc(CNc3ccc(C(=O)N[C@@H](CCC(=O)O)C(=O)O)cc3)nc2c(=O)[nH]1 [folic acid]	–	–	reduce the viscosity of the formulation	reduce the viscosity of the formulation	–	–	–	–
N=C(N)N [guanidine hydrochloride, carbamimidoylazanium chloride]	–	–	–	–	reduced viscosity	reduced viscosity	–	viscosity reducing effect compared among the excipients (Evolocumab): most pronounced viscosity reducing effect
CC[C@H](C)[C@H](N)C(=O)O [isoleucine]	–	–	–	–	reduced viscosity	reduced viscosity	–	–
CC(C)C[C@H](N)C(=O)O [leucine]	–	increase	–	–	reduced viscosity	reduced viscosity	–	viscosity reducing effect compared among the excipients (Evolocumab): most pronounced viscosity reducing effect; aggregation onset temperature Tagg (Infliximab [1]): increase; viscosity of the formulation (Infliximab [2]; [8]): reduced the viscosity of the formulation; viscosity of the formulation (Infliximab [2]; [9]): reduced viscosity of the formulation
NCCCC[C@H](N)C(=O)O [lysine]	–	–	–	–	reduced viscosity	reduced viscosity	–	viscosity reducing effect compared among the excipients (Evolocumab): most pronounced viscosity reducing effect
CC(=O)Nc1ccc(O)cc1 [paracetamol, reference compound]	reduced the viscosity of the formulation	–	–	–	–	–	reduced viscosity of the formulation	–
N[C@@H](Cc1ccccc1)C(=O)O [phenylalanine]	–	–	–	–	reduced viscosity	reduced viscosity	–	viscosity of the formulation (Infliximab [2]; [8]): reduced the viscosity of the formulation; viscosity of the formulation (Infliximab [2]; [9]): reduced viscosity of the formulation; also recorded: most efficient viscosity reducing excipient
O=C(O)[C@@H]1CCCN1 [proline]	–	increase	–	–	reduced viscosity	–	–	aggregation onset temperature Tagg (Infliximab [1]): increase; viscosity of the formulation (Infliximab [2]; [8]): reduced the viscosity of the formulation; viscosity of the formulation (Infliximab [2]; [9]): reduced viscosity of the formulation
Cc1ncc(CO)c(CO)c1O [pyridoxine]	reduced viscosity of the formulation	–	viscosity reducing effect	reduce the viscosity of the formulation	–	–	reduced	–
C=C[C@H]1C[N@@]2CC[C@H]1C[C@H]2[C@H](O)c1ccnc2ccc(OC)cc12 [quinine hydrochloride, (R)-[(1S,2S,4S,5R)-5-ethenyl-1-azabicyclo[2.2.2]octan-2-yl](6-methoxyquinolin-4-yl)methanol dihydrate hydrochloride, reference compound]	reduced the viscosity of the formulation	–	–	–	–	–	reduced viscosity of the formulation	–
Cc1ncc(C[n+]2csc(CCO)c2C)c(N)n1 [thiamine hydrochloride]	–	–	–	–	–	–	reduced	viscosity of the formulation (Evolocumab; 5 mM cyanocobalamin, 25 mM quinine hydrochloride, hydrochloride): reduced viscosity of the formulation; also recorded: most efficient viscosity reducing excipient; viscosity of a Evolocumab formulation (Evolocumab; [11]): reduced the viscosity; viscosity of the formulation (Infliximab [2]; protein concentration 149 mg/ml, 150 mM pyridoxine, thiamine hydrochloride or thiamine monophosphate, 5 mM cyanocobalamin, 13 mM folic acid, 75 mM thiamine pyrophosphate, hydrochloride): reduce the viscosity of the formulation; also recorded: high viscosity reducing potential; viscosity of the formulation (Infliximab [2]; protein concentration 174 mg/ml, 150 mM pyridoxine, ascorbic acid, thiamine hydrochloride or thiamine phosphate, 5 mM cyanocobalamin, 13 mM folic acid, 75 mM thiamine pyrophosphate, versus formulation without excipients, hydrochloride): high viscosity reducing potential; viscosity of the formulation (Infliximab [2]; protein concentration 174 mg/ml, 150 mM pyridoxine, ascorbic acid, thiamine hydrochloride or thiamine phosphate, 5 mM cyanocobalamin, 13 mM folic acid, 75 mM thiamine pyrophosphate, versus formulation without excipients, listed as thiamine hydrochoride, hydrochloride): viscosity reducing effect; viscosity reducing effect on the Infliximab solution (Infliximab [2]; 75 mM thiamine pyrophosphate): strong viscosity reducing effect
Cc1ncc(C[n+]2csc(CCOP(=O)(O)O)c2C)c(N)n1 [thiamine monophosphate]	–	–	high viscosity reducing potential	reduce the viscosity of the formulation	–	–	–	viscosity of a Evolocumab formulation (Evolocumab; [11]): reduced the viscosity; viscosity of the formulation (Infliximab [2]; protein concentration 174 mg/ml, 150 mM pyridoxine, ascorbic acid, thiamine hydrochloride or thiamine phosphate, 5 mM cyanocobalamin, 13 mM folic acid, 75 mM thiamine pyrophosphate, versus formulation without excipients, listed as thiamine phosphate): viscosity reducing effect; viscosity reducing effect on the Infliximab solution (Infliximab [2]; 75 mM thiamine pyrophosphate): strong viscosity reducing effect
Cc1ncc(C[n+]2csc(CCO[P@](=O)(O)OP(=O)(O)O)c2C)c(N)n1 [thiamine pyrophosphate]	–	–	reduce the viscosity of the formulation	reduce the viscosity of the formulation	–	–	–	viscosity reducing efficiency (Evolocumab; formulations with 179 mg/ml and 204 mg/ml Evolocumab, 75 mM excipient): highly efficient; viscosity of a Evolocumab formulation (Evolocumab; [11]): reduced the viscosity; viscosity reducing effect on the Infliximab solution (Infliximab [2]; 75 mM thiamine pyrophosphate): strong viscosity reducing effect
CC(C)[C@H](N)C(=O)O [valine]	–	increase	–	–	–	–	–	aggregation onset temperature Tagg (Infliximab [1]): increase; viscosity of the formulation (Infliximab [2]; [8]): reduced the viscosity of the formulation
cyanocobalamin	reduced the viscosity of the formulation	increase	reduce the viscosity of the formulation	reduce the viscosity of the formulation	–	–	reduced viscosity of the formulation	–
